Values quoted from earlier work as cited in patent publication US4746505A, “Technetium radiodiagnostic fatty acids derived from bisamide bisthiol ligands” (President and Fellows of Harvard College, priority 1985, dated 1988).

How the values were obtained:
[1] = mice
[2] = at carrier-added (CA) and no-carrier-added (NCA) concentrations

kidney activity ([1]; at 5 min post-injection)	blood levels ([1]; over the first 30 min)	stability in vivo (at carrier-added (CA) and no-carrier-added (NCA) concentrations)	renal excretion (in vivo)	stability in vitro [2]	Substance
relatively high kidney activity	6-8 %/g				^99m Tc-oxo[N,N'-ethylene-bis(2-mercapto)-[2'-(11-carboxyundecyl)]thio-acetamido]-technetate (+5) [^99m TcO(Undec)ema]
		stable	rapid renal excretion	stable	oxo[N,N'-ethylenebis(2-mercapto-acetamido)]technetate (+5) [[TcO(ema)]^-]
